Test results as given in patent publication US4264597A, “Cephalosporin analogues and processes for the preparation thereof” (priority 1978, dated 1981).
Converted amounts (≈) assume the structure as drawn.

System: T. asteroides
Experiment: In vitro antimicrobial activity, two-fold agar-plate dilution method (MIC)
Assay type: cell-based
Details: overnight culture in Trypticase-soy broth (10^4-5 viable spores per ml) streaked on HI-agar, incubation at 37° C. for 20 hours
Method: In vitro antibacterial activity was determined by the two-fold agar-plate dilution method as described below. One loopful of an overnight culture of each test strain in Trypticase-soy broth (10^4-5 viable spores per ml) was streaked on heart infusion sugar (HI-agar) containing graded concentrations of antibiotics, and the minimal inhibitory concentration (MIC) was expressed in terms of μg/ml after incubation at 37° C. for 20 hours.

| MIC [µg/mL] | Compound |
| --- | --- |
| 100 (≈ 228 µM) | O=C(COc1ccccc1)N[C@@H]1C(=O)N2C(C(=O)OCc3ccccc3)=CC(=O)S[C@H]12 [(1)] |
| 200 (≈ 473 µM) | O=C(COc1ccccc1)N[C@@H]1C(=O)N2C(C(=O)OCc3ccccc3)=CC(=O)O[C@H]12 [(2)] |
